Here are results for 37 compounds from paper PMC10001950 (International Journal of Molecular Sciences, 2023).

One test has as its target BoNT/A LC WT (Clostridium botulinum, UniProt P0DPI0). In kind it is binding.
For test [1], the target named is T1, BoNT/A LC (Clostridium botulinum, UniProt P0DPI0). Briefly: biochemical.
Test [2] has as its system BoNT/A1 cleavage of SNAP-25 in hiPSC-derived motor neurons. Kind of test: cells. In kind it is cell-based, human.
For test [3], the target named is T1, BoNT/A LC. Kind of test: biochemical. In kind it is biochemical.

Where two headings read alike, the source gives them in different places.

T1 sequence (P0DPI0 2-448 limits assumed): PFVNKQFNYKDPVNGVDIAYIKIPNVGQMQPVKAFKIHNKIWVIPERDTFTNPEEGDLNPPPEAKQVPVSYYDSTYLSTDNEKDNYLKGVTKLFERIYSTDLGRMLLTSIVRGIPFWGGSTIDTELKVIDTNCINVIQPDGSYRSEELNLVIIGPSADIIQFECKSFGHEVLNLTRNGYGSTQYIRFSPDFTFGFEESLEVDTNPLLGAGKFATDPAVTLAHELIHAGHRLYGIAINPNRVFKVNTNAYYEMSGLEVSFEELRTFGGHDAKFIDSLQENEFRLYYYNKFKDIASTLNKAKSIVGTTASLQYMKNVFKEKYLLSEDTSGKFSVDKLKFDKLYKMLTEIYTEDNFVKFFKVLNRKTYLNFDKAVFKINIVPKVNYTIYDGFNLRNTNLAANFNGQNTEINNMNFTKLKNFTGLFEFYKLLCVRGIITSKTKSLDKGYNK
Sequence of BoNT/A LC WT (P0DPI0 2-448 limits assumed): as above

`CS(=O)(=O)SCCCCCc1ccn2c(=O)cc(CNCc3ccc(-c4ccccc4)cc3)nc2c1O` [Compound 82, S-(6-(2-((([1,1′-biphenyl]-4-ylmethyl)amino)methyl)-9-hydroxy-4-oxo-4H-pyrido [1,2-a]pyrimidin-8-yl)pentyl) methanesulfonothioate]: the “covalent adduct formation by HRMS (in words)” value (shortened to “covalent adduct formation”) at BoNT/A LC WT is reported as “an increase in mass matching two covalent adducts”. Further, on BoNT/A LC [1], the affinity corresponds to a Ki of 1.87 ± 0.11 µM, the kinact is 0.0024 ± 0.0002 s⁻¹ and the kinact/KI turned out to be 1260 ± 130 M⁻¹ s⁻¹.
As for `O=c1cc(CNCc2cccc(Cl)c2)nc2c(O)cccn12` [Compound 18, 2-(((3-Chlorobenzyl)amino)methyl)-9-hydroxy-4H-pyrido [1,2-a]pyrimidin-4-one], the “inhibition of SNAP-25 cleavage (in words)” value (“inhibition … (in words)” for short) in test [2] was “neither 2 nor 18 inhibited the cleavage of SNAP-25”. It took 1.7 ± 0.3 µM to reach half-maximal inhibition against BoNT/A LC [3] (IC50).
For `NCc1cc(=O)n2cccc(O)c2n1` [Compound 13, 2-(Aminomethyl)-9-hydroxy-4H-pyrido [1,2-a]pyrimidin-4-one], the “inhibitory activity against BoNT/A LC (in words)” value on BoNT/A LC [3] is on record as “a decrease in inhibitory potency”.
Regarding `O=c1cc(COCc2cccc(Cl)c2)nc2c(O)cccn12` [Compound 35, 2-(((3-Chlorobenzyl)oxy)methyl)-9-hydroxy-4H-pyrido [1,2-a]pyrimidin-4-one], in test [2], the “inhibition … (in words)” value is reported as “did not have any apparent effect on SNAP-25 cleavage”. The IC50 on BoNT/A LC [3] came to 7.5 ± 0.5 µM.
The compound `CC(O)c1cc2n(n1)CCN(Cc1cc(=O)n3cccc(O)c3n1)C2` (centres unmarked) [Compound 4] yielded an IC50 on BoNT/A LC [3] of 7 ± 1 µM.
The compound `Oc1cccc2ccc(CNCc3ccccc3)nc12` [Compound 14, 2-((Benzylamino)methyl)quinolin-8-ol] returned a decrease in inhibition on BoNT/A LC [3] of 15 fold.
For the compound `O=c1cc(COCc2cccc(F)c2)nc2c(O)cccn12` [Compound 32, 2-(((3-Fluorobenzyl)oxy)methyl)-9-hydroxy-4H-pyrido [1,2-a]pyrimidin-4-one], the “protection of SNAP-25 (in words)” value in test [2] is “nearly complete protection of SNAP-25”. For the same compound, on BoNT/A LC [3], the midpoint of inhibition, the IC50, lay at 11 ± 1 µM and the “less potent than 2 in the enzyme assay” value is listed as about 10 fold.
The compound `O=c1cc(CN2Cc3ccc(-c4ccccc4)cc3C2)nc2c(O)cccn12` [Compound 45, 9-Hydroxy-2-((5-phenylisoindolin-2-yl)methyl)-4H-pyrido [1,2-a]pyrimidin-4-one] showed an IC50 against BoNT/A LC [3] of 0.7 ± 0.1 µM.
On the same count and under the same terms, under `O=c1cc(COCc2ccccc2)nc2c(O)cccn12` [Compound 30, 2-((Benzyloxy)methyl)-9-hydroxy-4H-pyrido [1,2-a]pyrimidin-4-one] stands 2.5 ± 0.3 µM; under `O=c1cc(CN2CCc3ccc(Br)cc32)nc2c(O)cccn12` [Compound 49, 2-((6-Bromoindolin-1-yl)methyl)-9-hydroxy-4H-pyrido [1,2-a]pyrimidin-4-one], 0.7 ± 0.05 µM.
Consider `O=C(O)c1ccc2c(c1)N(Cc1cc(=O)n3cccc(O)c3n1)CC2` [Compound 54, 1-((9-Hydroxy-4-oxo-4H-pyrido [1,2-a]pyrimidin-2-yl)methyl)indoline-6-carboxylic acid], for which, in test [2], the “protection of SNAP-25 (in words)” value is given as “protect against SNAP-25 cleavage”. At BoNT/A LC [3], this compound had an IC50 of 1.2 ± 0.1 µM.
With `O=c1cc(CNCCc2ccccc2)nc2c(O)cccn12` [Compound 29, 9-Hydroxy-2-((phenethylamino)methyl)-4H-pyrido [1,2-a]pyrimidin-4-one], half-maximal inhibition against BoNT/A LC [3] (IC50) required 10 ± 1 µM.
The same measure, in the same setting: under `COc1cccc(CNCc2cc(=O)n3cccc(O)c3n2)c1` [Compound 20, 9-Hydroxy-2-(((3-methoxybenzyl)amino)methyl)-4H-pyrido [1,2-a]pyrimidin-4-one] stands 0.49 ± 0.09 µM; under `O=c1cc(CN2CCc3cc(Br)ccc32)nc2c(O)cccn12` [Compound 48, 2-((5-Bromoindolin-1-yl)methyl)-9-hydroxy-4H-pyrido [1,2-a]pyrimidin-4-one], 0.7 ± 0.1 µM.
For the compound `O=c1cc(CNCc2ccccc2)nc2c(O)cccn12` [Compound 2, 2-((Benzylamino)methyl)-9-hydroxy-4H-pyrido [1,2-a]pyrimidin-4-one], the “inhibition … (in words)” value in test [2] is recorded as “neither 2 nor 18 inhibited the cleavage of SNAP-25”. Further, at BoNT/A LC [3], half-maximal inhibition (IC50) was put at 0.9 ± 0.2 µM and the “fold more potent than initial lead 1” value is “approximately seven-fold”. In addition, the “covalent adduct formation” value on BoNT/A LC WT was “Neither of the reversible compounds 2 and 27 showed any change in mass”.
As to `O=c1cc(CNCc2cccc(F)c2)nc2c(O)cccn12` [Compound 16, 2-(((3-Fluorobenzyl)amino)methyl)-9-hydroxy-4H-pyrido [1,2-a]pyrimidin-4-one], the IC50 against BoNT/A LC [3] was determined as 0.6 ± 0.1 µM.
Compound `COc1ccc(CNCc2cc(=O)n3cccc(O)c3n2)cc1` [Compound 21, 9-Hydroxy-2-(((4-methoxybenzyl)amino)methyl)-4H-pyrido [1,2-a]pyrimidin-4-one] returned an IC50 against BoNT/A LC [3] of 1.9 ± 0.2 µM.
On the same count and under the same terms, the same measure for `COc1ccc2c(c1)N(Cc1cc(=O)n3cccc(O)c3n1)CC2` [Compound 51, 9-Hydroxy-2-((6-methoxyindolin-1-yl)methyl)-4H-pyrido [1,2-a]pyrimidin-4-one]: over 64 µM.
With `O=c1cc(CNCc2ccc(Cl)cc2)nc2c(O)cccn12` [Compound 19, 2-(((4-Chlorobenzyl)amino)methyl)-9-hydroxy-4H-pyrido [1,2-a]pyrimidin-4-one], it took 1.1 ± 0.1 µM to reach half-maximal inhibition against BoNT/A LC [3] (IC50).
Turning to `CS(=O)(=O)SCCCCCCCc1ccn2c(=O)cc(CNCc3ccc(-c4ccccc4)cc3)nc2c1O` [Compound 84], on BoNT/A LC [1], the affinity, expressed as Ki, was 32 ± 6 µM; the kinact is 0.0038 ± 0.0008 s⁻¹; the kinact/KI came out at 120 ± 30 M⁻¹ s⁻¹.
For `O=c1cc(COCc2cccc([N+](=O)[O-])c2)nc2c(O)cccn12` [Compound 40, 9-Hydroxy-2-(((3-nitrobenzyl)oxy)methyl)-4H-pyrido [1,2-a]pyrimidin-4-one], it took 9.7 ± 0.8 µM to reach half-maximal inhibition at BoNT/A LC [3] (IC50).
Still for that read-out and setting: the same measure for `O=c1cc(CN2CCc3ccccc32)nc2c(O)cccn12` [Compound 46, 9-Hydroxy-2-(indolin-1-ylmethyl)-4H-pyrido [1,2-a]pyrimidin-4-one]: 2.9 ± 0.1 µM; for `O=c1cc(CNCc2cccc(-c3ccccc3)c2)nc2c(O)cccn12` [Compound 26, 2-((([1,1′-biphenyl]-3-ylmethyl)amino)methyl)-9-hydroxy-4H-pyrido [1,2-a]pyrimidin-4-one]: 0.6 ± 0.1 µM; for `Cc1cccc(COCc2cc(=O)n3cccc(O)c3n2)c1` [Compound 38, 9-Hydroxy-2-(((3-methylbenzyl)oxy)methyl)-4H-pyrido [1,2-a]pyrimidin-4-one]: 6.6 ± 0.5 µM.
In the case of `O=c1cc(CN2Cc3ccc(Br)cc3C2)nc2c(O)cccn12` [Compound 44, 2-((5-Bromoisoindolin-2-yl)methyl)-9-hydroxy-4H-pyrido [1,2-a]pyrimidin-4-one], the midpoint of inhibition at BoNT/A LC [3], the IC50, lay at 0.4 ± 0.02 µM.
`O=c1cc(COCc2ccccc2F)nc2c(O)cccn12` [Compound 31, 2-(((2-Fluorobenzyl)oxy)methyl)-9-hydroxy-4H-pyrido [1,2-a]pyrimidin-4-one] yielded an IC50 against BoNT/A LC [3] of 18 ± 2 µM.
As for “2-(((4-Chlorobenzyl)amino)methyl)-4H-pyrido [1,2-a]pyrimidin-4-one [Compound 10]”, at BoNT/A LC [3], the “inhibitory activity against BoNT/A LC (in words)” value was “complete ablation of inhibitory activity”.
For the compound `O=C(O)[C@@H]1CN(Cc2cc(=O)n3cccc(O)c3n2)C[C@H]1c1ccccn1` [Compound 3], at BoNT/A LC [3], the midpoint of inhibition, the IC50, lay at 1.3 ± 0.2 µM and the “fold more potent than initial lead 1” value was “approximately seven-fold”.
On to `CS(=O)(=O)SCCCCCCc1ccn2c(=O)cc(CNCc3ccc(-c4ccccc4)cc3)nc2c1O` [Compound 83, S-(6-(2-((([1,1′-biphenyl]-4-ylmethyl)amino)methyl)-9-hydroxy-4-oxo-4H-pyrido [1,2-a]pyrimidin-8-yl)hexyl) methanesulfonothioate], for which, on BoNT/A LC [1], the affinity, expressed as Ki, was 3.4 ± 0.5 µM; the kinact amounted to 0.0028 ± 0.0002 s⁻¹; the kinact/KI came to 820 ± 30 M⁻¹ s⁻¹.
The compound `COc1cc(COCc2cc(=O)n3cccc(O)c3n2)cc(OC)c1` [Compound 41, 2-(((3,5-Dimethoxybenzyl)oxy)methyl)-9-hydroxy-4H-pyrido [1,2-a]pyrimidin-4-one] came in with an IC50 against BoNT/A LC [3] of 5.2 ± 0.2 µM.
For the compound `O=c1cc(CN2Cc3ccccc3C2)nc2c(O)cccn12` [Compound 42, 9-Hydroxy-2-(isoindolin-2-ylmethyl)-4H-pyrido [1,2-a]pyrimidin-4-one], on BoNT/A LC [3], inhibition was half-maximal at 1.2 ± 0.1 µM (IC50) and the “potency compared to 2 (in words)” value was “equipotent”.
Turning to `O=c1cc(CN2CCc3cc(Cl)ccc32)nc2c(O)cccn12` [Compound 47, 2-((5-Chloroindolin-1-yl)methyl)-9-hydroxy-4H-pyrido [1,2-a]pyrimidin-4-one], in test [2], the “protection of SNAP-25 (in words)” value was “protect against SNAP-25 cleavage”. Besides, it took 0.9 ± 0.6 µM to reach half-maximal inhibition on BoNT/A LC [3] (IC50).
Compound `Cc1cccc(CNCc2cc(=O)n3cccc(O)c3n2)c1` [Compound 22, 9-Hydroxy-2-(((3-methylbenzyl)amino)methyl)-4H-pyrido [1,2-a]pyrimidin-4-one] had an IC50 on BoNT/A LC [3] of 0.5 ± 0.1 µM.
The same measure, in the same setting: under `O=c1cc(COCc2cccc(O)c2)nc2c(O)cccn12` [Compound 37, 9-Hydroxy-2-(((3-hydroxybenzyl)oxy)methyl)-4H-pyrido [1,2-a]pyrimidin-4-one] stands 26 ± 2 µM; under `O=c1cc(CN2CCc3cc(-c4ccccc4)ccc32)nc2c(O)cccn12` [Compound 55, 9-Hydroxy-2-((5-phenylindolin-1-yl)methyl)-4H-pyrido [1,2-a]pyrimidin-4-one], 0.9 ± 0.3 µM; under `O=c1cc(CN2CCc3ccc(-c4ccccc4)cc32)nc2c(O)cccn12` [Compound 56, 9-Hydroxy-2-((6-phenylindolin-1-yl)methyl)-4H-pyrido [1,2-a]pyrimidin-4-one], 0.6 ± 0.1 µM.
For `O=c1cc(CNCc2ccc(-c3ccccc3)cc2)nc2c(O)cccn12` [Compound 27, 2-((([1,1′-biphenyl]-4-ylmethyl)amino)methyl)-9-hydroxy-4H-pyrido [1,2-a]pyrimidin-4-one], in test [2] (Homo sapiens, Neuron, 0.5 h), the midpoint of inhibition, the IC50, lay at 13 µM. Moreover, on BoNT/A LC [3], the IC50 is 0.3 ± 0.1 µM, affinity was put at a Ki of 0.15 µM and the “potency compared to 2 (in words)” value was “significantly increased inhibitory potency”. Moreover, the “covalent adduct formation” value on BoNT/A LC WT is “Neither of the reversible compounds 2 and 27 showed any change in mass”.
